Experimental data from the NIST ThermoML archive (doi:10.1021/acs.jced.5b00537).

Assay: xn = mol fraction of the nth substance listed
Conditions: 100 kPa, Liquid; for viscosity: Cone and plate viscometry; for mass density: Vibrating tube method

CCC(C)(C)O [2-methylbutan-2-ol] + CC(C)CO
Conditions	mass density [kg/m3]	viscosity [mPa·s]
293.15 K, x1 = 0.101	803.58	4.697
293.15 K, x1 = 0.2	805.09	5.166
293.15 K, x1 = 0.301	806.61	5.487
293.15 K, x1 = 0.4	807.99	5.819
293.15 K, x1 = 0.5	809.31	6.094
293.15 K, x1 = 0.599	810.29	6.075
293.15 K, x1 = 0.7	810.83	5.951
293.15 K, x1 = 0.8	810.82	5.518
293.15 K, x1 = 0.9	810.12	5.081
293.15 K, x1 = 1	808.77	4.596
303.15 K, x1 = 0.101	795.96	3.244
303.15 K, x1 = 0.2	797.22	3.387
303.15 K, x1 = 0.301	798.63	3.616
303.15 K, x1 = 0.4	799.87	3.726
303.15 K, x1 = 0.5	800.87	3.775
303.15 K, x1 = 0.599	801.55	3.715
303.15 K, x1 = 0.7	801.84	3.597
303.15 K, x1 = 0.8	801.61	3.386
303.15 K, x1 = 0.9	800.89	3.187
303.15 K, x1 = 1	799.74	2.983
313.15 K, x1 = 0.101	788	2.392
313.15 K, x1 = 0.2	789.04	2.445
313.15 K, x1 = 0.301	790.24	2.526
313.15 K, x1 = 0.4	791.21	2.552
313.15 K, x1 = 0.5	791.89	2.539
313.15 K, x1 = 0.599	792.32	2.46
313.15 K, x1 = 0.7	792.36	2.365
313.15 K, x1 = 0.8	792.06	2.287
313.15 K, x1 = 0.9	791.35	2.204
313.15 K, x1 = 1	790.35	2.078
323.15 K, x1 = 0.101	779.8	1.749
323.15 K, x1 = 0.2	780.62	1.776
323.15 K, x1 = 0.301	781.62	1.8
323.15 K, x1 = 0.4	782.29	1.792
323.15 K, x1 = 0.5	782.77	1.756
323.15 K, x1 = 0.599	782.89	1.721
323.15 K, x1 = 0.7	782.77	1.664
323.15 K, x1 = 0.8	782.3	1.606
323.15 K, x1 = 0.9	781.58	1.549
323.15 K, x1 = 1	780.66	1.494
333.15 K, x1 = 0.101	771.08	1.31
333.15 K, x1 = 0.2	771.75	1.315
333.15 K, x1 = 0.301	772.36	1.329
333.15 K, x1 = 0.4	772.81	1.316
333.15 K, x1 = 0.5	772.96	1.277
333.15 K, x1 = 0.599	772.93	1.243
333.15 K, x1 = 0.7	772.58	1.206
333.15 K, x1 = 0.8	772.09	1.164
333.15 K, x1 = 0.9	771.38	1.128
333.15 K, x1 = 1	770.4	1.093
343.15 K, x1 = 0.101	762.05	–
343.15 K, x1 = 0.2	762.45	–
343.15 K, x1 = 0.301	762.79	–
343.15 K, x1 = 0.4	762.98	–
343.15 K, x1 = 0.5	762.91	–
343.15 K, x1 = 0.599	762.66	–
343.15 K, x1 = 0.7	762.18	–
343.15 K, x1 = 0.8	761.63	–
343.15 K, x1 = 0.9	760.84	–
343.15 K, x1 = 1	759.8	–
353.15 K, x1 = 1	749.13	–
363.15 K, x1 = 1	738.77	–
